Laboratory results as given in patent US12528767B2, “HDAC6 inhibitors and uses thereof” (Eikonizo Therapeutics, Inc., priority 2019, dated 2026).
Read-outs that look alike come from different tables or passages of the source.

Experiments:
Full length Human HDAC6 = biological target: T1, Full length Human HDAC6 (Homo sapiens, UniProt Q9UBN7); details: for Selectivity (6 v 8) (fold): ratio of HDAC8 IC50/HDAC6 IC50
T1 sequence (Q9UBN7 1-1215): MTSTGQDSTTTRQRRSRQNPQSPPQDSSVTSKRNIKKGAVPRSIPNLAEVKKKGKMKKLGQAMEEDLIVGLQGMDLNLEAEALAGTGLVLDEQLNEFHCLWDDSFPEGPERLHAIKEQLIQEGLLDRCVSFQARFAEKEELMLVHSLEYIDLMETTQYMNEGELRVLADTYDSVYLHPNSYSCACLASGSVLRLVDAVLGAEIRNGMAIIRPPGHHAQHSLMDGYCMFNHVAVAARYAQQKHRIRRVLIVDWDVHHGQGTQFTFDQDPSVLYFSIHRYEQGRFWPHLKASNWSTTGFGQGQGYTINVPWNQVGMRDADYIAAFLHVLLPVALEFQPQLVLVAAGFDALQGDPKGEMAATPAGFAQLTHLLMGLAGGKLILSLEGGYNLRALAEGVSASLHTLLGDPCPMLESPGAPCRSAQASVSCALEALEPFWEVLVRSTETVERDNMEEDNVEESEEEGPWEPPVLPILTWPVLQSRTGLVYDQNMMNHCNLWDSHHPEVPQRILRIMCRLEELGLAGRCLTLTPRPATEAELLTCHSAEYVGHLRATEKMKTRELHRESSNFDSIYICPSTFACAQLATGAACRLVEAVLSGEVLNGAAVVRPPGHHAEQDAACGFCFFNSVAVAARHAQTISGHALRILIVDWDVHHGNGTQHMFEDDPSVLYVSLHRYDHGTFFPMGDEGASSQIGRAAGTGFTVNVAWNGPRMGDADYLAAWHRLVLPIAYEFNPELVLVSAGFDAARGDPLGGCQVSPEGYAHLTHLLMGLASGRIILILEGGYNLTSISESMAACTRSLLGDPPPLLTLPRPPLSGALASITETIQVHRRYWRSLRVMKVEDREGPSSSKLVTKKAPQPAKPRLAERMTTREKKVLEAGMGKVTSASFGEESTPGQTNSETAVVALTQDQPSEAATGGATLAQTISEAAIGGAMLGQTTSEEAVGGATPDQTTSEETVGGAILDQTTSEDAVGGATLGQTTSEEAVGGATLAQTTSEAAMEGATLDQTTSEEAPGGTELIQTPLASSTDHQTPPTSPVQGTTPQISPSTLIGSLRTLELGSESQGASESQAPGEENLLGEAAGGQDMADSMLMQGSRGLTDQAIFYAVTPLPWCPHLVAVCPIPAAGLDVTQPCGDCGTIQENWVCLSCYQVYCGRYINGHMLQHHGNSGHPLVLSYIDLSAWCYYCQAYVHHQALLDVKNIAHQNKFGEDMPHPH

Full length Human HDAC8 = biological target: T2, Full length Human HDAC8 (Homo sapiens, UniProt Q9BY41)
T2 sequence (Q9BY41 1-377): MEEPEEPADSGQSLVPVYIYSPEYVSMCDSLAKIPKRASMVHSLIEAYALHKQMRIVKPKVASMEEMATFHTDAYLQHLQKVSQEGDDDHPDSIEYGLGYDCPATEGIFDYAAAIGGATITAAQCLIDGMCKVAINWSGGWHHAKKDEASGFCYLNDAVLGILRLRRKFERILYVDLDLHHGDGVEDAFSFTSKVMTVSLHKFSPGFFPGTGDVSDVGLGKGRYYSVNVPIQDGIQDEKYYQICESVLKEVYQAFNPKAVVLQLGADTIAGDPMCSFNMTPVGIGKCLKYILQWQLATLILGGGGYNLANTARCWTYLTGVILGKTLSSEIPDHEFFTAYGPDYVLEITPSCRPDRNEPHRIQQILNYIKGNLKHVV

Selectivity (6 v 8) (fold) (Full length Human HDAC6; Table 1, number)	Selectivity (6 v 8) (fold) (Full length Human HDAC6; Table 1, range class)	IC50 (Full length Human HDAC6) [nM]	IC50 (Full length Human HDAC8) [nM]	SMILES
1.8	II (II: >1-10)	–	–	CN1Cc2cc(C(=O)NO)ccc2[C@@H]2CCCN21 (single isomer, unassigned) [compound 160]
27.6	III (III: >10-100)	1 to 100	100 to 1000	O=C(NO)c1ccc(CN2CCOCC2)c(F)c1 [compound 51]
15.6	III (III: >10-100)	–	–	CC[C@@H]1CCCN1Cc1ccc(C(=O)NO)cc1F (single isomer, unassigned) [compound 48]
468.8	IV (IV: >100-1000)	–	–	CC[C@@H](c1ccccc1)N1CCc2cc(C(=O)NO)cc(F)c2C1 (single isomer, unassigned) [compound 31]
22.3	III (III: >10-100)	1 to 100	100 to 1000	O=C(NO)c1ccc(CN2CCCOCC2)c(F)c1 [compound 47]
–	–	100 to 1000	1000 to 10000	O=C(NO)c1cc(F)c2c(c1)CN(CC1COC1)CC2 [compound 115, 5-fluoro-N-hydroxy-2-(oxetan-3-ylmethyl)-1,2,3,4-tetrahydroisoquinoline-7-carboxamide]
–	–	1 to 100	10000 to 100000	O=C(NO)c1cc(F)c2c(c1)CCN(CC13C4C5C6C4C1C6C53)C2 (stereo not shown) [compound 25]
20.6	III (III: >10-100)	1 to 100	1000 to 10000	O=C(NO)c1ccc(CN2CC3(CCCC3)C2)c(F)c1 [compound 69]
10.3	III (III: >10-100)	1 to 100	100 to 1000	O=C(NO)c1cc(F)c2c(c1)CN(Cc1ccccc1)CC2 [compound 114, 2-benzyl-5-fluoro-N-hydroxy-1,2,3,4-tetrahydroisoquinoline-7-carboxamide]
6.1	II (II: >1-10)	1 to 100	100 to 1000	Cc1ccn2c1-c1c(F)cc(C(=O)NO)cc1CC2 [compound 155, 10-fluoro-N-hydroxy-1-methyl-5,6-dihydropyrrolo[2,1-a] isoquinoline-8-carboxamide]
–	–	1 to 100	1000 to 10000	CN1Cc2cc(C(=O)NO)ccc2CN1Cc1ccccc1 [compound 118, 2-benzyl-N-hydroxy-3-methyl-1,2,3,4-tetrahydrophthalazine-6-carboxamide]
16	III (III: >10-100)	1 to 100	1000 to 10000	O=C(NO)c1ccc(CN2CC3(CCCCC3)C2)c(F)c1 [compound 70]
2.8	II (II: >1-10)	100 to 1000	1000 to 10000	CN1Cc2cc(C(=O)NO)ccc2-c2cccn21 [compound 162, N-hydroxy-5-methyl-5,6-dihydropyrrolo[2,1-a]phthalazine-8-carboxamide]
–	–	1 to 100	10000 to 100000	O=C(NO)c1cc(F)c2c(c1)CCN(C1CCC1)C2 [compound 4]
33.4	III (III: >10-100)	1 to 100	1000 to 10000	O=C(NO)c1ccc(CN2CC3(CCOCC3)C2)c(F)c1 [compound 71]
198.5	IV (IV: >100-1000)	100 to 1000	10000 to 100000	O=C(NO)c1cc(F)c2c(c1)CCN([C@@H]1CCC13CCCCC3)C2 (single isomer, unassigned) [compound 8]
–	–	1 to 100	1000 to 10000	O=C(NO)c1cc(F)c2c(c1)CCN(CC1CC1)C2 [compound 2]
27.9	III (III: >10-100)	1 to 100	1000 to 10000	O=C(NO)c1ccc(CN2CC3(CCOC3)C2)c(F)c1 [compound 68]
15.4	III (III: >10-100)	–	–	CC[C@H]1CCCN1Cc1ccc(C(=O)NO)cc1F (single isomer, unassigned) [compound 49]
>2.9	V (V: >1000)	–	–	O=C(NO)c1cc(F)c2c(c1)C[C@@H]1COCCN1C2 (single isomer, unassigned) [compound 129]
126.4	IV (IV: >100-1000)	–	–	O=C(NO)c1cc(F)c2c(c1)C[C@@H]1CCC3(CCCCC3)CN1C2 (single isomer, unassigned) [compound 137]
>2.8	V (V: >1000)	–	–	O=C(NO)c1cc(F)c2c(c1)C[C@H]1COCCN1C2 (single isomer, unassigned) [compound 130]
262.4	IV (IV: >100-1000)	–	–	CC[C@H](c1ccccc1)N1CCc2cc(C(=O)NO)cc(F)c2C1 (single isomer, unassigned) [compound 30]
2	II (II: >1-10)	–	–	CN1Cc2cc(C(=O)NO)ccc2[C@H]2CCCN21 (single isomer, unassigned) [compound 161]

SMILES	Selectivity (6 v 8) (fold) (Full length Human HDAC6; Table 1, number)	Selectivity (6 v 8) (fold) (Full length Human HDAC6; Table 1, range class)	IC50 (Full length Human HDAC6) [nM]	IC50 (Full length Human HDAC8) [nM]
O=C(NO)c1cc(F)c(CN2C3CCC2COC3)cc1F [compound 50]	45.5	III (III: >10-100)	1 to 100	1000 to 10000
O=C(NO)c1ccc2c(c1)CN1CCCC[C@@H]1C2 (single isomer, unassigned) [compound 143]	88.8	III (III: >10-100)	–	–
O=C(NO)c1ccc2c(c1)CCN1CCC[C@H]21 (single isomer, unassigned) [compound 148]	1.9	II (II: >1-10)	–	–
O=C(NO)c1ccc2c(c1)CN1CCC[C@@H]21 (single isomer, unassigned) [compound 165]	15	III (III: >10-100)	100 to 1000	1000 to 10000
O=C(NO)c1ccc2c(c1)CCN1CCCC[C@H]21 (single isomer, unassigned) [compound 90]	3.6	II (II: >1-10)	–	–
O=C(NO)c1ccc2c(c1)CCN1CCC[C@@H]21 (single isomer, unassigned) [compound 149]	6.5	II (II: >1-10)	–	–
O=C(NO)c1ccc2c(c1)CCN1CCCC[C@@H]21 (single isomer, unassigned) [compound 89]	3.1	II (II: >1-10)	–	–
O=C(NO)c1ccc2c(c1)CN1CCCC[C@H]1C2 (single isomer, unassigned) [compound 144]	26.7	III (III: >10-100)	–	–
O=C(NO)c1ccc2c(c1)C[C@H]1CCCN1C2 (single isomer, unassigned) [compound 122]	14.5	III (III: >10-100)	–	–
O=C(NO)c1ccc2c(c1)CN1CCC[C@H]21 (single isomer, unassigned) [compound 164]	2.3	II (II: >1-10)	–	–
CC1(C)C[C@@H]2Cc3cc(C(=O)NO)cc(F)c3CN2C1 (single isomer, unassigned) [compound 126]	37.4	III (III: >10-100)	–	–
